Measurements taken from ChEMBL document CHEMBL3714750, “Aryl sulfonamides” (2008).
Calls of active or inactive are those of the source. The rule behind the calls is not given here.

How the values were obtained:
Mus musculus = experiment: Inhibition of inflammatory bowel disease-associated growth retardation in MDR1a-knockout mouse at 50 mg/kg, sc dosed twice daily for 14 consecutive weeks starting at age 10 weeks; type: functional, organism-based
[1] = molecular target: T1, C-C chemokine receptor type 9 (Homo sapiens, UniProt P51686); experiment: Antagonist activity against CCR9 in human MOLT4 cells assessed as inhibition of human recombinant TECK-induced calcium response pre-treated before TECK stimulation by Flou-4-AM dye based FLIPR assay; type: functional, cell-based, MOLT-4
T1 sequence (P51686 whole entry): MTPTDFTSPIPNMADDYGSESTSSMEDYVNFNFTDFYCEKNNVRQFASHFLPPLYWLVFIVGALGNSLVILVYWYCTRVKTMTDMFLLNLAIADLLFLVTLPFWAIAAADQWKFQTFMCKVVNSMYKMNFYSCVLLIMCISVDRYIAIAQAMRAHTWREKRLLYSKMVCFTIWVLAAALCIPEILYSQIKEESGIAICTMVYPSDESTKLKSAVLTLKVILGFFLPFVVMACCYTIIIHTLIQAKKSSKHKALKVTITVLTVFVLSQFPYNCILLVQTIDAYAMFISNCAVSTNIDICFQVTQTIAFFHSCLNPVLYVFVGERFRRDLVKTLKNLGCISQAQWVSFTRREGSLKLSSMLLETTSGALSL

| Compound | Activity (Mus musculus) | IC50 [1] [nM] |
| --- | --- | --- |
| CC(C)(C)c1ccc(S(=O)(=O)Nc2ccc(Cl)cc2C(=O)c2ccncc2)cc1 | Active | < 1000 |
| Cc1ccc(C(=O)c2cc(Cl)ccc2NS(=O)(=O)c2ccc(-c3cnc(C)o3)cc2)cn1 |  | > 1000 |
| O=C(c1ccncc1)c1cc(Cl)ccc1NS(=O)(=O)c1ccc(I)cc1 |  | < 1000 |
